Source: patent publication US20260199485A1, “RNA DEGRADERS AND USES THEREOF” (Arrakis Therapeutics, Inc., priority 2022, published 2026)

Legend:
CNOT7 = biological target: T1, CNOT7 (Homo sapiens, UniProt Q9UIV1); test: Binding of compounds to CNOT7 by surface plasmon resonance (SPR)
T1 construct: biotin (biotinylated); purchased Ichor Life Sciences
Description: Surface plasmon resonance (SPR) was used to evaluate the binding of compounds to CNOT7. Experiments were performed on a Biacore 8K (Cytiva) with a running buffer consisting of 20 mM HEPES pH7.5, 100 mM KCl, 3 mM MgCl2, 1 mM TCEP, 0.05% tween-20, 2% DMSO. Briefly, biotinylated CNOT7 (Ichor Life Sciences) at a concentration of 70 μg/ml was immobilized to a streptavidin coated chip (Cytiva sensor chip SA) for 1200 sec at a flow rate of 5 μl/min (typical immobilization level 7,500 RU). For compound binding experiments, various concentrations of analyte were flowed over the chip with 120 sec association phase, 120 sec dissociation phase, at a flow rate of 30 ul/min and collection rate of 10 Hz. Reference channel subtraction and solvent correction were applied to all sensograms prior to data analysis. Sensograms were fit to 1:1 steady state affinity model. FIGS. 3 and 4 show the binding of exemplary compounds and the AMP control (a known CNOT7 active site binder) at various concentrations to CNOT7.

[1] = biological target: T2, CNOT7-FKBP12(F36V) fusion protein (Homo sapiens, UniProt Q9UIV1); test: Biochemical gel assay: degradation/deadenylation of RNA substrate with immunoprecipitated CNOT7-FKBP12(F36V); set-up: key to Activity by gel: +: an activity observed as compared to DMSO control; −: no activity observed as compared to DMSO control; conditions: for Activity by gel: Table 8, degradation of RNA, compared to DMSO control
T2 construct: expressed in transfected cells; host or cells: H1299 cells; anti-HA immunoprecipitation, HA-peptide elution
T2 sequence (Q9UIV1 with tags, fused parts or gaps): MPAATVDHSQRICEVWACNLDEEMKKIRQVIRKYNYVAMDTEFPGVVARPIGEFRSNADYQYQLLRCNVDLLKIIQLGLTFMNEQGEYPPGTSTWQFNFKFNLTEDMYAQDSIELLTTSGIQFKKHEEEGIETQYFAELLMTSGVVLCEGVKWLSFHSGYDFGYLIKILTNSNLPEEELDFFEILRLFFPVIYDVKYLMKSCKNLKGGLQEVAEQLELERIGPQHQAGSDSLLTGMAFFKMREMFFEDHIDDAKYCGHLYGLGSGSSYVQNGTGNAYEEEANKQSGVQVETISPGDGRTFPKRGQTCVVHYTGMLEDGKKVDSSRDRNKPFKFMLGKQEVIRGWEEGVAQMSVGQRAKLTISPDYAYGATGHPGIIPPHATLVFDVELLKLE
Source text: Biochemical reporter systems were generated to evaluate the ability of CNOT7 binding compounds to accelerate the degradation of RNA by CNOT7. […] Generation of the target RNA was described in the previous experiment. […] The bifunctional molecules consist of Compound 1-4 and the following rSM:
which binds to the RNA sequence of AST-X, or the rSM linked to a tag that binds CNOT7-FKBPV. Specifically, the tag is compound AP1867 (CAS NO.: 195514-23-9), a known binder of FKBPV, resulting in the rSM-AP1867tag. The CNOT7-FKBPV is obtained by immunoprecipitation of cell engineered to express CNOT-FKBPV. Specifically, H1299 cells were transfected with plasmid expressing HA-tagged CNOT7-FKBP12(F36V) fusion protein. After 24 hours, cells were pelleted and lysed in the following lysis buffer: 20 mM HEPES pH 7.3, 0.2 mM EGTA, 10% glycerol, 0.1 mM DTT with cOmplete EDTA-free protease inhibitors (Millipore). After freeze-thawing, NaCl was added to a concentration of 400 mM and lysates were pelleted to clear cellular debris. Cleared lysate was adjusted to buffer conditions containing 0.1% NP-40 and 150 mM NaCl before being applied to Pierce Anti-HA magnetic beads (ThermoFisher) at 4° C. for 2-20 hours with end-over-end rotation. After washing, bound protein was competitively eluted with 2 mg/mL HA peptide (ThermoFisher) in activity assay buffer at 4° C. for 2-20 hours. It should be appreciated that this immunoprecipitation protocol will result in tagged CNOT7 that will likely have other components of the CCR4-NOT complex bound as well.
The reactions were incubated at 37° C., with specified timepoints removed from the reaction and combined with 2× formamide RNA loading buffer with 10 mM EDTA before boiling for 3 minutes to quench the reaction. Samples were run on a pre-warmed 15% TBE-Urea polyacrylamide gel at 180V for 90 minutes and then imaged using Cy2 settings on the Azure Biosystems 600 Imaging System. […] It should be noted that the CCR4-NOT complex includes proteins other than CNOT7, for instance CNOT6, that have deadenylation and/or exonuclease activity.
These findings were confirmed in the biochemical assay described above. […] In contrast, literature compounds that are active site binders, compounds A, B and C, structure depicted on the right-hand side, do interfere with the ability of CNOT7 to degrade RNA (See center panel of gel).
Heterobifunctional molecules were generated by conjugating the rSM depicted above, which binds RNA with an AST-X sequence, to AP1867 (a small molecule binder of FKBP12(F36V)), resulting in rSM-AP1867tag. In addition, I-243 was conjugated to the rSM resulting in compounds 1-329 and I-371, depicted in FIG. 17. Fluorescently labeled RNA substrates were refolded in the presence of Mg^2+ and incubated 10, 25, or 50 μM doses of heterobifunctional molecules for 30 minutes at room temperature before the enzymatic reaction was initiated with the elution fraction (containing CNOT7-FKBP12(F36V) fusion protein) from the immunoprecipitation protocol above. The reactions were incubated at 37° C., with specified timepoints removed from the reaction and combined with 2× formamide RNA loading buffer with 10 mM EDTA before boiling for 3 minutes to quench the reaction. Samples were run on a pre-warmed 15% TBE-Urea polyacrylamide gel at 180V for 120 minutes and then imaged using Cy2 settings on the Azure Biosystems 600 Imaging System (See FIGS. 18, 19A and 19B). In addition, for 1-371 and the control rSM-AP1867tag, the disappearance of the full-length substrate band was quantified using ImageJ and plotted over time (FIG. 19B).

[2] = dissociation constant by SPR, Table 7

T1 sequence (Q9UIV1 whole entry): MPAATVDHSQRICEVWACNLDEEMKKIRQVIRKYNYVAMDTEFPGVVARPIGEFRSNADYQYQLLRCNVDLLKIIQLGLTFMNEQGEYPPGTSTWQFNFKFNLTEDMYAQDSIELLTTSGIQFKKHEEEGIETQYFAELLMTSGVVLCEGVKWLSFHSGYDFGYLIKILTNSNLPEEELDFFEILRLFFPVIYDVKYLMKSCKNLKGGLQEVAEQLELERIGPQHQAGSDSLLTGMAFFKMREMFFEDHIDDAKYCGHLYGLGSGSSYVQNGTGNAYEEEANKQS

For COc1ccc(C(C)NC(=O)C(COCCOCCOCCc2cn(COc3ccc(NC(=O)Nc4nc(CC(=O)N5CCN(C)CC5)cs4)cc3)nn2)Sc2nc(=O)[nH]cc2C)c(F)c1 (centres unmarked) [Compound I-329], the Kd (CNOT7; Table 6, dissociation constant for CNOT7 by SPR) was 1 to 25 µM, the Kd (CNOT7; [2]) was 1 to 25 µM and the Activity by gel [1] was “−”. The “relative potency in biochemical assay” value ([1]; bait conjugated to rSM (Example 17, FIG. 18)) was “more potent”.
COc1ccc2c(c1)C[C@@H](COCCOCCOCCOCc1cn(CCOc3ccc(NC(=O)Nc4nc(CC(=O)N5CCN(C)CC5)cs4)cc3)nn1)N(C(=O)CSc1nc(=O)[nH]cc1C)C2 [Compound I-338] was tested, and the Kd (CNOT7; [2]) was over 25 µM and the Activity by gel [1] was “−”.
In the case of COc1ccc2c(c1)C[C@H](COCCOCCOCCOCc1cn(CCOc3ccc(NC(=O)Nc4nc(CC(=O)N5CCN(C)CC5)cs4)cc3)nn1)N(C(=O)CSc1nc(=O)[nH]cc1C)C2 [Compound I-339], the Kd (CNOT7; [2]) is reported as over 25 µM and the Activity by gel [1] is reported as “+”.
COc1ccc([C@@H](C)NC(=O)[C@@H](COCCOCCOCc2cn(CCOc3ccc(NC(=O)Nc4nc(CC(=O)N5CCN(C)CC5)cs4)cc3)nn2)Sc2nc(=O)[nH]cc2Cl)c(F)c1 [Compound I-372] was tested, and the Kd (CNOT7; [2]) was 1 to 25 µM and the Activity by gel [1] was “+”.
For COc1ccc([C@@H](C)NC(=O)[C@H](COCCOCCOCc2cn(CCOc3ccc(NC(=O)Nc4nc(CC(=O)N5CCN(C)CC5)cs4)cc3)nn2)Sc2nc(=O)[nH]cc2Cl)c(F)c1 [Compound I-373], the Kd (CNOT7; [2]) was over 25 µM and the Activity by gel [1] was “+”.
With COc1ccc(C(C)NC(=O)C(CCOCCOCCOCCn2cc(CCc3ccc(NC(=O)Nc4nc(CC(=O)N5CCN(C)CC5)cs4)cc3)nn2)Sc2nc(=O)[nH]cc2C)c(F)c1 (centres unmarked) [Compound I-382] the Activity by gel [1] was “+”.
With COc1ccc(C(C)NC(=O)C(CCOCCOCCOCCn2cc(COCCOCCOc3ccc(NC(=O)Nc4nc(CC(=O)N5CCN(C)CC5)cs4)cc3)nn2)Sc2nc(=O)[nH]cc2Cl)c(F)c1 (centres unmarked) [Compound I-395] the Kd (CNOT7; [2]) was 1 to 25 µM and the Activity by gel [1] was “+ (weak)”.
For COc1ccc([C@@H](C)NC(=O)[C@H](CCOCCOCCOCCn2cc(COCCOCCOCCOCCOc3ccc(NC(=O)Nc4nc(CC(=O)N5CCN(C)CC5)cs4)cc3)nn2)Sc2nc(=O)[nH]cc2Cl)c(F)c1 [Compound I-398], the Activity by gel [1] was “−”.
In the case of COc1ccc2c(c1)CC(COCCOCCOCCOCc1cn(CCOc3ccc(NC(=O)Nc4nc(CC(=O)N5CCN(C)CC5)cs4)cc3)nn1)N(C(=O)CSc1nc(=O)[nH]cc1C)C2 (centres unmarked) [Compound I-451], the Kd (CNOT7; [2]) is reported as over 25 µM and the Activity by gel [1] is reported as “−”.
In the case of COc1ccc(CNC(=O)[C@H](COCCOCCOCCn2cc(COCCOCCOc3ccc(NC(=O)Nc4nc(CC(=O)N5CCN(C)CC5)cs4)cc3)nn2)Sc2nc(=O)[nH]cc2C)cc1 [Compound I-469], the Kd (CNOT7; [2]) is reported as 1 to 25 µM and the Activity by gel [1] is reported as “−”.
COc1ccc(CNC(=O)[C@@H](COCCOCCOCCn2cc(COCCOCCOc3ccc(NC(=O)Nc4nc(CC(=O)N5CCN(C)CC5)cs4)cc3)nn2)Sc2nc(=O)[nH]cc2C)c(F)c1 [Compound I-473] was tested, and the Kd (CNOT7; [2]) was 1 to 25 µM and the Activity by gel [1] was “−”.
In the case of COc1ccc(CNC(=O)[C@H](COCCOCCOCCn2cc(COCCOCCOc3ccc(NC(=O)Nc4nc(CC(=O)N5CCN(C)CC5)cs4)cc3)nn2)Sc2nc(=O)[nH]cc2C)c(F)c1 [Compound I-474], the Kd (CNOT7; [2]) is reported as 1 to 25 µM and the Activity by gel [1] is reported as “−”.
COc1ccc(CNC(=O)[C@@H](COCCOCCOCCn2cc(COCCOCCOCCOCCOc3ccc(NC(=O)Nc4nc(CC(=O)N5CCN(C)CC5)cs4)cc3)nn2)Sc2nc(=O)[nH]cc2C)cc1 [Compound I-475] was tested, and the Kd (CNOT7; [2]) was 1 to 25 µM and the Activity by gel [1] was “−”.
In the case of COc1ccc(CNC(=O)[C@H](COCCOCCOCCn2cc(COCCOCCOCCOCCOc3ccc(NC(=O)Nc4nc(CC(=O)N5CCN(C)CC5)cs4)cc3)nn2)Sc2nc(=O)[nH]cc2C)cc1 [Compound I-476], the Kd (CNOT7; [2]) is reported as 1 to 25 µM and the Activity by gel [1] is reported as “−”.
With COc1ccc(CNC(=O)[C@H](COCCOCCOCCn2cc(COCCOCCOCCOCCOc3ccc(NC(=O)Nc4nc(CC(=O)N5CCN(C)CC5)cs4)cc3)nn2)Sc2nc(=O)[nH]cc2C)c(F)c1 [Compound I-478] the Kd (CNOT7; [2]) was 1 to 25 µM and the Activity by gel [1] was “+”.
With COc1ccc2c(c1)C[C@@H](COCCOCCOCCOCCn1cc(COCCOCCOc3ccc(NC(=O)Nc4nc(CC(=O)N5CCN(C)CC5)cs4)cc3)nn1)C(C(=O)CSc1nc(=O)[nH]cc1C)C2 (some centres unmarked) [Compound I-495] the Kd (CNOT7; [2]) was over 25 µM and the Activity by gel [1] was “−”.
In the case of COc1ccc2c(c1)C[C@@H](COCCOCCOCCOCCn1cc(COCCOCCOCCOCCOc3ccc(NC(=O)Nc4nc(CC(=O)N5CCN(C)CC5)cs4)cc3)nn1)N(C(=O)CSc1nc(=O)[nH]cc1C)C2 [Compound I-497], the Kd (CNOT7; [2]) is reported as over 25 µM and the Activity by gel [1] is reported as “+ (weak)”.
For COc1ccc([C@@H](C)NC(=O)[C@H](CCC(=O)N(C)Cc2cn(CCOc3ccc(NC(=O)Nc4nc(CC(=O)N5CCN(C)CC5)cs4)cc3)nn2)Sc2nc(=O)[nH]cc2C)c(F)c1 [Compound I-505], the Activity by gel [1] was “−”.
With COc1ccc([C@@H](C)NC(=O)[C@@H](CCC(=O)N(C)Cc2cn(CCOc3ccc(NC(=O)Nc4nc(CC(=O)N5CCN(C)CC5)cs4)cc3)nn2)Sc2nc(=O)[nH]cc2C)c(F)c1 [Compound I-506] the Activity by gel [1] was “−”.
With COc1ccc(C(C)NC(=O)C(CCC(=O)N(C)c2cccc(OCCOc3ccc(NC(=O)Nc4nc(CC(=O)N5CCN(C)CC5)cs4)cc3)c2)Sc2nc(=O)[nH]cc2C)c(F)c1 (centres unmarked) [Compound I-515] the Activity by gel [1] was “−”.
With Cc1c[nH]c(=O)nc1SCC(=O)NCc1ccc(OCCOCCOCCOCCn2cc(COc3ccc(NC(=O)Nc4nc(CC(=O)N5CCN(C)CC5)cs4)cc3)nn2)cc1 [Compound I-533] the Activity by gel [1] was “−”.
